Measurements from US20210353648A1, “GRAPIPRANT UNIT DOSAGE FORMS” (Arrys Therapeutics, Inc., priority 2018, published 2021).

How the values were obtained:
[1] = Phase 1 single ascending dose study of grapiprant OPC: safety and tolerability; format: in vivo
Protocol: Eligible subjects were to be enrolled into 8 sequential cohorts, corresponding to the planned dose levels of 1 mg, 3 mg, 10 mg, 30 mg, 100 mg, 300 mg, 600 mg, and 1000 mg. […] After determining a maximum tolerated dose (MTD), or after completing the highest dose cohort if a MTD was not determined, Cohort 11 would be enrolled to increase the number of subjects evaluated at the MTD (or the highest dose).
In each dosing period, subjects were confined to the Clinical Research Unit (CRU) for approximately 60 hours (from approximately 36 hours predose through 24 hours postdose), and were instructed to return to the study site at 48 hours postdose for collection of blood samples for safety and pharmacokinetic evaluations. Subjects had triplicate ECG measurements made at select time-points on Day 0 (to provide a time-matched baseline) and through 24 hours postdose. Continuous cardiac monitoring by telemetry was performed for 12 hours postdose (or up to 24 hours, if warranted, based on the pharmacokinetic data). Creatine phosphokinase (CPK; total CPK and CPK-MB isoenzyme) and troponin I levels were monitored predose and at 12 and 24 hours postdose. In each dosing period, blood samples were collected predose and at 0.5, 1, 1.5, 2, 2.5, 3, 4, 6, 8, 12, 16, 24, and 48 hours postdose for pharmacokinetic evaluation. Fecal occult blood was monitored predose and through 48 hours postdose. Urine was collected through 24 hours postdose for exploratory biotransformation analyses. Since grapiprant may be a substrate of efflux transporters, genotyping for P-gp, an efflux transporter, was also planned for this study.
Safety: All subjects were evaluated for safety. Subjects were queried regarding adverse events (AEs) at 24 hours prior to dosing, 0 hours predose (baseline), and 1, 2, 4, 8, and 12 hours postdose. A limited physical examination, clinical laboratory tests, and fecal occult blood test were performed 24 hours prior to dosing. Vital signs measurements and 12-lead ECGs were performed in triplicate (approximately 2 minutes apart) at specified intervals in the 24 hours before dosing, 0 hours (predose), and at 0.5, 1, 1.5, 2, 3, 4, 8, and 12 hours postdose. Continuous cardiac telemetry monitoring was started at 1 hour postdose and continued for 12 hours postdose Fecal occult blood was monitored for 48 hours postdose.

[2] = Phase 1 multiple ascending dose study of grapiprant tablets: urine pharmacokinetics; format: in vivo, human; conditions: for CLR/Fu: mean; for AE / AE/Dose: urine; for AE / AE/Dose / CL renal: mean (SD); for CL renal: human, urine and serum
Protocol: Urine pharmacokinetic parameters can be used to assess the amount of parent drug excreted unchanged in the urine. The urine pharmacokinetic parameters can be calculated under the assumption that the amount of grapiprant excreted unchanged in the urine over the dosing interval was at steady state on the last day of dosing for the 14 day and 17 day oral administration described herein. As used herein, the term “AE” refers to the amount of parent drug excreted from 0-12 hours post dose on day 14 or day 17, calculated by (Urine Grapiprant Concentration×Urine Volume). As used herein, the term “AE/Dose” refers to percent of Dose renally excreted unchanged on day 14 or day 17, calculated by (AE/Dose)×100. As used herein, the term “CLR” refers to renal clearance on day 14 or day 17, calculated by (AE/AUCτ). As used herein, the term “CLR/Fu” refers to renal clearance of unbound drug, calculated by (CLR/Fu), where the fraction of drug in the serum not bound to proteins (Fu) is determined from in vitro human serum protein binding data.
Serial urine samples for PK evaluations of grapiprant were collected on Day 14 for up to 48 hours postdose (Cohorts 1-3) or on Day 17 for up to 24 hours postdose (Cohorts 5 and 6).
Grapiprant was extracted from the urine by protein precipitation, and then analyzed by a validated LC/MS/MS method. The dynamic range of the assay was 1.00 to 600 μg/mL. The following parameters were calculated under the assumption that the amount of grapiprant excreted unchanged in the urine over the dosing interval was at steady state on the 14th day of dosing: amount of parent drug excreted (AE), percent of dose renally excreted unchanged (AE/dose), renal clearance (CLR), and renal clearance of unbound drug (CLR/Fu).

[3] = 50 mg BID (n = 8), after 14 days of multiple oral dosing, healthy adults
[4] = 150 mg BID (n = 9), after 14 days of multiple oral dosing, healthy adults
[5] = 250 mg BID (Elderly) (n = 14), after 14 days of multiple oral dosing (Day 17)
[6] = 300 mg BID (n = 9), after 14 days of multiple oral dosing, healthy adults

CCc1nc2c(C)nc(C)cc2n1-c1ccc(CCNC(=O)NS(=O)(=O)c2ccc(C)cc2)cc1 [Grapiprant, N-((4-(2-ethyl-4,6-dimethyl-1H-imidazo[4,5-c]pyridin-1-yl)phenethyl)carbamoyl)-4-methylbenzenesulfonamide]
subjects reporting abdominal pain ([1]; 30 mg): 1 subject
SAEs ([1]; 1 subject at 600 mg (not related), 1 each at 1500 mg and 2000 mg): Three subjects experienced SAEs
subjects reporting abdominal pain ([1]; 1500 mg): 2 subjects
incidence of AEs ([1]; 1500 mg treatment group): 4 of 6 subjects
subjects reporting abdominal pain ([1]; 2000 mg): 4 subjects
incidence of AEs ([1]; 2000 mg treatment group): 5 of 6 subjects
serum creatinine and BUN (COSTART term: acute renal failure) ([1]; 2 subjects, 1 each at 1500 mg and 2000 mg): mild, treatment-related elevations in serum creatinine and BUN
subjects experiencing AEs ([1]; 26 of the 61 subjects treated, single doses 1 mg to 2000 mg): 43%
deaths or discontinuations due to AEs ([1]; all dose levels): No deaths or discontinuations due to AEs
fecal occult blood ([1]; all dose levels): No positive results for fecal occult blood tests
vital signs measurements, cardiac telemetry, ECG parameters ([1]; all dose levels): No clinically important, study drug-related changes
subjects with treatment-related abdominal pain ([1]; among the 12 subjects who received 1500 or 2000 mg): 6 subjects
tolerability ([1]; single doses ranging from 1 mg to 1000 mg): generally well tolerated
CLR/Fu [2, 3]: 6120 mL/min
AE [2, 3]: 10.6 (3.18) mg
AE/Dose [2, 3]: 21.2 (6.37) %
CLR/Fu [2, 4]: 6000 mL/min
AE [2, 4]: 33.3 (11.2) mg
AE/Dose [2, 4]: 22.2 (7.48) %
CLR/Fu [2, 5]: 2720 mL/min
AE [2, 5]: 57.9 (18.7) mg
AE/Dose [2, 5]: 23.2 (7.48) %
CLR/Fu [2, 6]: 4840 mL/min
AE [2, 6]: 82.4 (27.1) mg
AE/Dose [2, 6]: 27.5 (9.05) %
renal clearance corrected for protein binding compared with GFR ([2]; healthy and elderly subjects): much greater than the glomerular filtration rate
CL renal [2, 3]: 56.3 mL/min
CL renal [2, 4]: 55.2 mL/min
CL renal [2, 5]: 25 mL/min
CL renal [2, 6]: 44.5 mL/min
